Assay type in all cases: cell-based
The subject of one assay is HepG2 parental. In words: In vitro cell viability (CellTiter-Glo), HepG2 parental. Conditions: 96 hours. Summed up:
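Parental HepG2 cells, 5,000 per well in DMEM with 10% FBS, attached overnight, then exposed to a compound concentration range for 96 h. Viability by CellTiter-Glo luminescence; IC50 reported in bins (A <0.5 µM up to D ≥10 µM).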
(ATP-based viability assays read luminescence as a measure of living cells.)

The subject of a further assay is Colo-205 cells. The assay can be described thus: Calcium flux assay (FLIPR Calcium 5). The following applies: FLIPR Calcium 5, measured over 36 minutes. As to the method:
Compounds described herein induced ER stress by causing intracellular calcium flux. Calcium flux was measured in Colo-205 cells using the FLTPR® Calcium 5 Assay Kit according to manufacter's protocol (Molecular Devices, Cat. #R8186) on a FLIPR3 system (Molecular Devices). Calcium flux is measured over 36 minutes. The Colo-205 calcium flux assay data are summarized in Table 47: A<0.6 μM; 0.6 μM≤B<2.0 μM; 2.0 μM≤C<10.0 μM; D≥10.0 μM.
(Calcium assays in cells follow changes in intracellular calcium, usually with a dye or a luminescent sensor.)

Another assay concerns HepG2 XBP1(u)-Luc cells. In words: HepG2 XBP1 reporter assay. Conditions: 6 h. The essentials: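 Reporter cells are HepG2 stably carrying unspliced XBP1 fused to firefly luciferase, which becomes in-frame after IRE1alpha-mediated splicing. SteadyGlo luminescence was normalized to DMSO-treated cells for IC50 calculation.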
(In general: A reporter such as luciferase makes a cellular process visible.)

Assay [1] deals with Hek293 WFS1 over-expressor. The assay can be described thus: In vitro cell viability (CellTiter-Glo), Hek293 WFS1 over-expressor. The essentials:
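HEK293 cells stably overexpressing WFS1 via retroviral transduction (puromycin-selected), with empty-vector cells as counterpart, plated 1,000/well. Compounds added at various concentrations after overnight attachment; viability by CellTiter-Glo luminescence after 96 h, reported as IC50.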

Where [2] appears, read: Homo sapiens, read-out: HepG2 viability.
Where [3] appears, read: Homo sapiens, HEK293, Hek293 WFS1 over-expressing cells, read-out: Hek293 WFS1 viability.
Setting [4] is: Hek293 WFS1 over-expressing cells, read-out: Hek293 WFS1 viability.

Consider 16 compounds from patent publication US20230312587A1, “PTERIDINONE COMPOUNDS AND USES THEREOF” (Vertex Pharmaceutical Incorporated, priority 2018, published 2023).

Where two headings read alike, the source gives them in different places. Where only a bound is given, the exact number is not on record here.

Broadly, the EC50 is the concentration at which the effect is half-maximal.

For `Cc1nc(NCc2cn(Cc3ccc(C(F)(F)F)nc3)cn2)nc2c1NC(=O)[C@H](C)N2C` [Compound 428, (S)-4,7,8-trimethyl-2-(((1-((6-(trifluoromethyl)pyridin-3-yl)methyl)-1H-imidazol-4-yl)methyl)amino)-7,8-dihydropteridin-6(5H)-one], the IC50 with HepG2 parental (setting [2]) is no less than 10000 nM; in the assay on HepG2 XBP1(u)-Luc cells (Homo sapiens), no less than 10000 nM; in assay [1] (setting [3]), no less than 3000 nM. Besides, the EC50 in the assay on Colo-205 cells (Homo sapiens, COLO 205, 0.6 h) is no less than 10000 nM.
As to `Cc1nn(C)cc1Cn1cc(CNc2nc(C)c3c(n2)N(C)[C@@H](C)C(=O)N3)cn1` [Compound 139, (7S)-2-(((1-((1,3-dimethyl-1H-pyrazol-4-yl)methyl)-1H-pyrazol-4-yl)methyl)amino)-4,7,8-trimethyl-7,8-dihydropteridin-6(5H)-one], the IC50 with HepG2 parental (setting [2]) was no less than 10000 nM; in the assay on HepG2 XBP1(u)-Luc cells (Homo sapiens), no less than 10000 nM; in assay [1] (setting [3]), no less than 3000 nM. Further, the concentration for a half-maximal effect (EC50) in the assay with Colo-205 cells (Homo sapiens, COLO 205, 0.6 h) lay within 2000 to 10000 nM.
As for `Cc1nc(NCc2cnn(Cc3ccc(C(F)(F)F)nc3C(C)(C)O)c2)nc2c1NC(=O)[C@H](C)N2C` [Compound 416, (7S)-2-(((1-((2-(2-hydroxypropan-2-yl)-6-(trifluoromethyl)pyridin-3-yl)methyl)-1H-pyrazol-4-yl)methyl)amino)-4,7,8-trimethyl-7,8-dihydropteridin-6(5H)-one], the IC50 with HepG2 parental (setting [2]) was less than 500 nM; in the assay with HepG2 XBP1(u)-Luc cells (Homo sapiens), less than 600 nM; in assay [1] (setting [3]) it was less than 60 nM. Besides, the concentration giving a half-maximal response (EC50) in the assay on Colo-205 cells (Homo sapiens, COLO 205, 0.6 h) lay in the range of 600 to 2000 nM.
For `CC[C@H]1C(=O)Nc2cnc(NCc3cnn(Cc4ccc(C(F)(F)F)nc4)c3)nc2N1C` [Compound 427, (7S)-7-ethyl-8-methyl-2-(((1-((6-(trifluoromethyl)pyridin-3-yl)methyl)-1H-pyrazol-4-yl)methyl)amino)-7,8-dihydropteridin-6(5H)-one], in that order: no less than 10000 nM, 600 to 2000 nM, 60 to 600 nM and 600 to 2000 nM.
For `Cc1nc(NCc2cnn(Cc3cncc(F)c3)c2)nc2c1NC(=O)[C@H](C(C)C)N2C` [Compound 415, (7S)-2-(((1-((5-fluoropyridin-3-yl)methyl)-1H-pyrazol-4-yl)methyl)amino)-7-isopropyl-4,8-dimethyl-7,8-dihydropteridin-6(5H)-one], the IC50 in the assay on HepG2 parental (setting [2]) is 500 to 2000 nM; with HepG2 XBP1(u)-Luc cells (Homo sapiens), 600 to 2000 nM; in assay [1] (setting [3]) it was less than 60 nM. Moreover, the EC50 with Colo-205 cells (Homo sapiens, COLO 205, 0.6 h) lay in the range of 600 to 2000 nM.
Turning to `Cc1nc(NCc2cnn(Cc3ccc(C(F)(F)F)nc3)c2)nc2c1NC(=O)[C@H](C)N2C` [Compound 136, (7S)-4,7,8-trimethyl-2-(((1-((6-(trifluoromethyl)pyridin-3-yl)methyl)-111-pyrazol-4-yl)methyl)amino)-7,8-dihydropteridin-6(5H)-one], the IC50 in the assay with HepG2 parental (read-out: HepG2 viability) is 500 to 2000 nM; with HepG2 parental (cell viability, Cell Titer Glo, read-out: IC50), 330 nM; with HepG2 parental (cell viability, read-out: IC50 class), less than 500 nM; in the assay on HepG2 XBP1(u)-Luc cells it was 600 to 2000 nM; in assay [1] (setting [4]), less than 60 nM; in assay [1] (cell viability, Hek293 WFS1 over-expressor, read-out: IC50), 30 nM. Besides, the IC50 in assay [1] (cell viability, Hek293 WFS1 over-expressor, read-out: IC50 class) is less than 60 nM. The EC50 with Colo-205 cells lay in the range of 600 to 2000 nM. Also, in assay [1] (cell viability, WFS1 over-expressor vs empty vector), the “reduction in the IC50 on over-expression of WFS1 in Hek293 cells” value is recorded as greater than 1000 fold.
Take `Cc1nc(NCc2cnn(CC3CCC3)c2)nc2c1N(C)C(=O)[C@H](C)N2C` [Compound 7, (7S)-2-(((1-(cyclobutylmethyl)-1H-pyrazol-4-yl)methyl)amino)-4,5,7,8-tetramethyl-7,8-dihydropteridin-6(5H)-one]: the IC50 with HepG2 parental (setting [2]) fell in the range of 2000 to 10000 nM; with HepG2 XBP1(u)-Luc cells (Homo sapiens) it was 600 to 2000 nM; in assay [1] (setting [3]), 60 to 600 nM. The EC50 in the assay on Colo-205 cells (Homo sapiens, COLO 205, 0.6 h) was in the range of 600 to 2000 nM.
`CC[C@H]1C(=O)Nc2cnc(NCc3cnn(Cc4ccc(F)cc4)c3)nc2N1C` [Compound 9, (7S)-7-ethyl-2-(((1-(4-fluorobenzyl)-1H-pyrazol-4-yl)methyl)amino)-8-methyl-7,8-dihydropteridin-6(5H)-one]: the figures for the IC50 (in the assay with HepG2 parental (setting [2]); in the assay with HepG2 XBP1(u)-Luc cells (Homo sapiens); in assay [1] (setting [3])) were no less than 10000 nM, 600 to 2000 nM and 60 to 600 nM, respectively. Besides, in the assay with Colo-205 cells (Homo sapiens, COLO 205, 0.6 h), the EC50 lay within 600 to 2000 nM.
For the compound `Cc1nc(NCc2cnn(C3CCN(C(=O)c4ccc(F)cc4)CC3)c2)nc2c1NC(=O)[C@H](C)N2C` [Compound 125, (7S)-2-(((1-(1-(4-Fluorobenzoyl)piperidin-4-yl)-1H-pyrazol-4-yl)methyl)amino)-4,7,8-trimethyl-7,8-dihydropteridin-6(5H)-one], the IC50 is 2000 to 10000 nM with HepG2 parental (setting [2]), no less than 10000 nM in the assay with HepG2 XBP1(u)-Luc cells (Homo sapiens) and 600 to 3000 nM in assay [1] (setting [3]). In addition, the EC50 in the assay on Colo-205 cells (Homo sapiens, COLO 205, 0.6 h) lay within 2000 to 10000 nM.
Regarding `Cc1nc(NCc2cnn(CCc3ccc(F)cc3)c2)nc2c1NC(=O)[C@H](C)N2C` [Compound 6, (7S)-2-(((1-(4-fluorophenethyl)-1H-pyrazol-4-yl)methyl)amino)-4,7,8-trimethyl-7,8-dihydropteridin-6(5H)-one], the IC50 in the assay with HepG2 parental (setting [2]) lay in the range of 2000 to 10000 nM; in the assay with HepG2 XBP1(u)-Luc cells (Homo sapiens) it was 600 to 2000 nM; in assay [1] (setting [3]), 60 to 600 nM. Moreover, the EC50 in the assay on Colo-205 cells (Homo sapiens, COLO 205, 0.6 h) was 600 to 2000 nM.
On to “(7S)-2-(((1-((6-fluoro-2-isopropylpyridin-3-yl)methyl)-1H-pyrazol-4-yl)methyl)(methyl)amino)-7-isopropyl-4,8-dimethyl-7,8-dihydropteridin-6(5H)-one [Compound 430]”, for which the figures for the IC50 (in the assay on HepG2 parental (read-out: HepG2 viability); with HepG2 XBP1(u)-Luc cells; in assay [1] (setting [4])) were less than 500 nM, less than 600 nM and less than 60 nM, respectively. Further, the 50% effective concentration (EC50) in the assay on Colo-205 cells is 600 to 2000 nM.
In the case of `CC(=O)N(Cc1cnn(Cc2ccc(C(F)(F)F)nc2)c1)c1nc(C)c2c(n1)N(C)[C@@H](C)C(=O)N2` [Compound 405, (7S)-N-((1-((6-(trifluoromethyl)pyridin-3-yl)methyl)-1H-pyrazol-4-yl)methyl)-N-(4,7,8-trimethyl-6-oxo-5,6,7,8-tetrahydropteridin-2-yl)acetamide], the IC50 was no less than 10000 nM in the assay on HepG2 parental (setting [2]), no less than 10000 nM in the assay with HepG2 XBP1(u)-Luc cells (Homo sapiens) and no less than 3000 nM in assay [1] (setting [3]). In addition, the EC50 with Colo-205 cells (Homo sapiens, COLO 205, 0.6 h) was no less than 10000 nM.
Consider `Cc1nc(NCc2cnn(Cc3ccc(C(F)(F)F)nc3[C@@H](C)O)c2)nc2c1NC(=O)[C@H](C)N2C` (single isomer, unassigned) [Compound 420], for which the IC50 in the assay on HepG2 parental (setting [2]) was 500 to 2000 nM; in the assay on HepG2 XBP1(u)-Luc cells (Homo sapiens), 2000 to 10000 nM; in assay [1] (setting [3]), 60 to 600 nM. Moreover, the EC50 in the assay on Colo-205 cells (Homo sapiens, COLO 205, 0.6 h) was in the range of 2000 to 10000 nM.
Take `Cc1nc(NCc2cnn(Cc3cnc(Cl)c(F)c3)c2)nc2c1NC(=O)[C@H](C(C)C)N2C` [Compound 424, (7S)-2-(((1-((6-chloro-5-fluoropyridin-3-yl)methyl)-1H-pyrazol-4-yl)methyl)amino)-7-isopropyl-4,8-dimethyl-7,8-dihydropteridin-6(5H)-one]: the IC50 was less than 500 nM with HepG2 parental (setting [2]), less than 600 nM in the assay on HepG2 XBP1(u)-Luc cells (Homo sapiens) and less than 60 nM in assay [1] (setting [3]). The EC50 in the assay on Colo-205 cells (Homo sapiens, COLO 205, 0.6 h) was 600 to 2000 nM.
Take `Cc1nc(NCc2cnn(Cc3ccc(C(F)(F)F)nc3C(C)O)c2)nc2c1NC(=O)[C@H](C)N2C` (stereo partly drawn) [Compound 419, (7S)-2-(((1-((2-((S)-1-hydroxyethyl)-6-(trifluoromethyl)pyridin-3-yl)methyl)-1H-pyrazol-4-yl)methyl)amino)-4,7,8-trimethyl-7,8-dihydropteridin-6(5H)-one]: the IC50 with HepG2 parental (setting [2]) lay within 2000 to 10000 nM; in the assay with HepG2 XBP1(u)-Luc cells (Homo sapiens), 2000 to 10000 nM; in assay [1] (setting [3]), 60 to 600 nM. Moreover, the EC50 in the assay on Colo-205 cells (Homo sapiens, COLO 205, 0.6 h) is 2000 to 10000 nM.
`Cc1nc(NCc2cnn(Cc3ccc(C(F)(F)F)nc3Cl)c2)nc2c1NC(=O)[C@H](C)N2C` [Compound 418, (7S)-2-(((1-((2-chloro-6-(trifluoromethyl)pyridin-3-yl)methyl)-1H-pyrazol-4-yl)methyl)amino)-4,7,8-trimethyl-7,8-dihydropteridin-6(5H)-one]: the IC50 with HepG2 parental (setting [2]) was less than 500 nM; in the assay on HepG2 XBP1(u)-Luc cells (Homo sapiens), less than 600 nM; in assay [1] (setting [3]) it was less than 60 nM. Also, the EC50 in the assay on Colo-205 cells (Homo sapiens, COLO 205, 0.6 h) was less than 600 nM.
